This is an account of results in the supplement of paper PMC4862054.

Common to all, as to conditions: incubation time: 72 h
One assay deals with CAL-51. In words: drug sensitivity score (DSS), CellTiter-Glo (DSS (AUC-based score)); higher = stronger drug effect (viability inhibition or cytotoxicity); extreme values may be limits of the assay. A digest of the protocol:
(§1)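 Breast cancer cell lines were seeded in 20 µl suspension into 384-well plates already holding compound and incubated for 72 h. Each compound was tested at 5 concentrations in 10-fold steps across its own 10,000-fold range. Plates were normalised to 0.1 % DMSO and a positive kill control after CellTox Green and then CellTiter-Glo readings. The area under the fitted dose-response curve served as the basis for the drug sensitivity score.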

Assay [1] has as its system HCC1937. The description is as above. A digest of the protocol:
as §1

For assay [2], the system named is BT-549. The description is as above. The essentials:
as §1

A further assay has as its system MCF-10A. Described as above. The essentials: as §1
Assay [3] has as its system HDQ-P1. Described as above. A digest of the protocol: as §1
The test system of a further assay is BT-474. The description is as above. The essentials:
as §1

Assay [4] has as its system MFM-223. The assay is described as above. The essentials:
as §1

The test system of assay [5] is CAL-120. The description is as above. A digest of the protocol: as §1
Assay [6] relates to MDA-MB-468. The assay is described as above. A digest of the protocol:
as §1

The test system of assay [7] is MDA-MB-231. The assay is described as above. The essentials: as §1
Assay [8] has as its system HCC1599. The description is as above. A digest of the protocol: as §1
The subject of another assay is MDA-MB-453. Described as above. A digest of the protocol:
as §1

Assay [9] relates to CAL-85-1. The description is as above. The essentials: as §1
The test system of the next assay is Hs578T. The description is as above. A digest of the protocol: as §1
In a further assay the test system is SK-BR-3. The description is as above. The essentials: as §1
Another assay has as its system DU-4475. The description is as above. A digest of the protocol:
as §1

Another assay relates to HCC1143. The assay is described as above. The essentials: as §1
In assay [10] the test system is HCC1937. In words: normalised viability (% of control), CellTiter-Blue; higher = more viable cells (about 100 = DMSO control). The protocol: (§2)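 DSRT, CellTiter-Blue viability, 72 h incubation. Signal is normalised to DMSO and benzethonium chloride controls. Value is the normalised response at dose 3.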
Assay [11] deals with BT-549. Described as above. The protocol:
as §2

Assay [12] relates to HDQ-P1. The description is as above. On the procedure:
as §2

For another assay, the system named is CAL-148. Described as above. On the procedure: as §2
In assay [13] the test system is MFM-223. The description is as above. On the procedure:
as §2

Assay [14] has as its system CAL-120. The assay is described as above. On the procedure: as §2
The subject of assay [15] is MDA-MB-468. Described as above. On the procedure:
as §2

Assay [16] concerns MDA-MB-231. The description is as above. On the procedure:
as §2

The subject of assay [17] is HCC1599. Described as above. The protocol: as §2
Assay [18] has as its system CAL-85-1. Described as above. On the procedure:
as §2

Each structure is given as a SMILES string.

On to `CC(C)(C)Cn1c(N)nc2ccc(-c3[nH]c(C(C)(C)C)nc3-c3ccc(F)cc3)nc21`, for which the drug sensitivity score worked out at 0 with CAL-51; 0 in the assay with HCC1937 [1]; 1.72 in the assay on BT-549 [2]; 3.14 in the assay on MCF-10A; 0 in the assay on HDQ-P1 [3]; 0.606 in the assay with BT-474. Also, the drug sensitivity score with MFM-223 [4] was found to be 1.18; with CAL-120 [5], 0.0489; in the assay on MDA-MB-468 [6] it was 2.74; in the assay on MDA-MB-231 [7], 0; in the assay with HCC1599 [8], 0; in the assay with MDA-MB-453 it was 1.72. Moreover, the drug sensitivity score turned out to be 0 in the assay on CAL-85-1 [9]; 0 with Hs578T; 0.963 in the assay with SK-BR-3; 0 in the assay on DU-4475; 0 in the assay with HCC1143.
Turning to `Cn1cc(C[C@@H](N)C(=O)O)c2ccccc21` [1-methyl-D-tryptophan], the drug sensitivity score in the assay on CAL-51, with HCC1937 [1], in the assay with BT-549 [2], in the assay on MCF-10A, in the assay on HDQ-P1 [3] and in the assay on BT-474 was 0 each time. The drug sensitivity score in the assay on MFM-223 [4], in the assay with CAL-120 [5], in the assay with MDA-MB-468 [6], in the assay on MDA-MB-231 [7], in the assay on HCC1599 [8] and with MDA-MB-453 was 0 each time. Moreover, the drug sensitivity score with CAL-85-1 [9], with Hs578T, in the assay with SK-BR-3, in the assay with DU-4475 and in the assay on HCC1143 was 0 throughout.
Consider `CC[C@H](CC#N)OC(=O)N[C@@H](C)c1cccc(NC(=O)Nc2ccc(-c3cnco3)c(OC)c2)c1` [AVN944], for which the drug sensitivity score with CAL-51 was found to be 16.5; in the assay on HCC1937 [1], 9.9; with BT-549 [2], 15.9; with MCF-10A, 8.88; in the assay on HDQ-P1 [3] it was 11.7; with BT-474, 8.56. The drug sensitivity score in the assay on MFM-223 [4] is 6.05; with CAL-120 [5], 8.08; in the assay on MDA-MB-468 [6], 17.1; with MDA-MB-231 [7], 9.58; in the assay on HCC1599 [8] it was 11.4; with MDA-MB-453, 0. The drug sensitivity score was 13.1 in the assay with CAL-85-1 [9]; 10.1 in the assay on Hs578T; 9.68 with SK-BR-3; 13.4 in the assay on DU-4475; 11.7 in the assay with HCC1143.
In the case of `Cc1c(N)nc([C@H](CC(N)=O)NC[C@H](N)C(N)=O)nc1C(=O)N[C@H](C(=O)N[C@H](C)[C@@H](O)[C@H](C)C(=O)N[C@H](C(=O)NCCc1nc(-c2nc(C(=O)NCCC[S+](C)C)cs2)cs1)[C@@H](C)O)[C@@H](OC1OC(CO)C(O)C(O)C1OC1OC(CO)C(O)C(OC(N)=O)C1O)c1cnc[nH]1` (some centres undefined) [Bleomycin], the normalised viability with HCC1937 [10] (100 nM) came to 91.4%; in the assay with BT-549 [11] (100 nM), 61.4%; with HDQ-P1 [12] (10 nM), 82.3%; with CAL-148 (10 nM) it was 77.6%; in the assay on MFM-223 [13] (100 nM), 99.5%; with CAL-120 [14] (100 nM) it was 86.3%. Further, the normalised viability in the assay with MDA-MB-468 [15] (100 nM) is 86.5%; in the assay with MDA-MB-231 [16] (100 nM), 81.8%; in the assay on HCC1599 [17] (100 nM), 134%; in the assay on CAL-85-1 [18] (10 nM), 107%. Besides, the drug sensitivity score came out at 16.1 in the assay with CAL-51; 2.76 in the assay with HCC1937 [1]; 8.65 with BT-549 [2]; 0 in the assay with MCF-10A; 0 with HDQ-P1 [3]; 0 in the assay with BT-474. Besides, the drug sensitivity score in the assay on MFM-223 [4] stood at 0; in the assay with CAL-120 [5], 0.67; in the assay on MDA-MB-468 [6], 0; with MDA-MB-231 [7], 0; in the assay on HCC1599 [8], 0; in the assay with MDA-MB-453 it was 0. For the same compound, the drug sensitivity score with CAL-85-1 [9] was found to be 0; with Hs578T it was 0; in the assay with SK-BR-3, 2.43; in the assay with DU-4475, 0; in the assay on HCC1143 it was 4.08.
In the case of `Cc1cc2c(F)c(Oc3ncnn4cc(OC[C@@H](C)O)c(C)c34)ccc2[nH]1` [Brivanib], the normalised viability with HCC1937 [10] (10 nM) was 97.2%; in the assay on BT-549 [11] (10 nM), 93.9%; in the assay on HDQ-P1 [12] (1 nM), 94.8%; with CAL-148 (1 nM), 82.3%; in the assay on MFM-223 [13] (10 nM), 90.1%; with CAL-120 [14] (10 nM), 88.2%. In addition, the normalised viability in the assay with MDA-MB-468 [15] (10 nM) came to 103%; in the assay with MDA-MB-231 [16] (10 nM) it was 98.1%; with HCC1599 [17] (10 nM), 96.2%; in the assay with CAL-85-1 [18] (1 nM), 105%. Also, the drug sensitivity score is 1.49 in the assay on CAL-51; 0 in the assay on HCC1937 [1]; 0 in the assay with BT-549 [2]; 0 with MCF-10A; 0 with HDQ-P1 [3]; 0 in the assay on BT-474. Also, the drug sensitivity score in the assay with MFM-223 [4], in the assay with CAL-120 [5], with MDA-MB-468 [6], in the assay with MDA-MB-231 [7], with HCC1599 [8] and with MDA-MB-453 was 0 in each case. Further, the drug sensitivity score in the assay with CAL-85-1 [9], with Hs578T, in the assay on SK-BR-3, with DU-4475 and in the assay with HCC1143 was 0 each time.
For the compound `CCc1cnn2c(NCc3ccc[n+]([O-])c3)cc(N3CCCC[C@H]3CCO)nc12` [Dinaciclib], the drug sensitivity score with CAL-51 is 20.6; in the assay on HCC1937 [1], 14.9; with BT-549 [2] it was 19.6; in the assay on MCF-10A it was 12.9; in the assay on HDQ-P1 [3], 18.2; in the assay on BT-474, 18.3. Also, the drug sensitivity score in the assay with MFM-223 [4] came to 17.8; in the assay with CAL-120 [5], 13.6; with MDA-MB-468 [6], 18.3; with MDA-MB-231 [7] it was 25.4; in the assay with HCC1599 [8] it was 19.8; with MDA-MB-453, 16. In addition, the drug sensitivity score is 25.4 in the assay on CAL-85-1 [9]; 18.7 in the assay with Hs578T; 25.1 in the assay with SK-BR-3; 16.6 with DU-4475; 19.1 in the assay on HCC1143.
In the case of `Cc1c(C(=O)Nc2ccc(N3C[C@@H](C)O[C@@H](C)C3)nc2)cccc1-c1ccc(OC(F)(F)F)cc1` [Erismodegib], the drug sensitivity score in the assay on CAL-51 came to 4.99; in the assay on HCC1937 [1] it was 0; with BT-549 [2], 1.37; in the assay on MCF-10A, 0; with HDQ-P1 [3] it was 0.664; with BT-474, 3.21. Also, the drug sensitivity score came out at 1.41 in the assay with MFM-223 [4]; 0 with CAL-120 [5]; 1.28 in the assay with MDA-MB-468 [6]; 0 in the assay with MDA-MB-231 [7]; 0 in the assay with HCC1599 [8]; 0 with MDA-MB-453. Besides, the drug sensitivity score in the assay on CAL-85-1 [9], with Hs578T, in the assay on SK-BR-3, in the assay on DU-4475 and in the assay on HCC1143 was 0 throughout.
